Where two headings read alike, the source gives them in different places. Where a SMILES comes first, the peptide text is derived from it.
Key:
[1] = target: T1, Elastase from human neutrophils (Homo sapiens, UniProt P08246); assay: Enzymatic assay, elastase; details: Elastase IC50
T1 sequence (P08246 30-267): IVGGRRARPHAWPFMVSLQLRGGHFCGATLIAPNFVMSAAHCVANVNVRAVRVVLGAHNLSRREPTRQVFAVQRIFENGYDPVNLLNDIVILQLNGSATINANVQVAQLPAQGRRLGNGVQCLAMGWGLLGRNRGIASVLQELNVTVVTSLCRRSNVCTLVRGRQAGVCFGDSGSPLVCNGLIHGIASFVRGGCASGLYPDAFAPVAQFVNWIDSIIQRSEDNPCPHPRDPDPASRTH

[2] = target: Urokinase from human urine (Homo sapiens, UniProt P00749); assay: Enzymatic assay, urokinase
[3] = target: Thrombin, from Human Plasma (Homo sapiens, UniProt P00734); assay: Enzymatic assay, thrombin
[4] = target: Coagulation Factor Xa, from uman plasma (Homo sapiens, UniProt P00742); assay: Enzymatic assay, coagulation factor Xa
Sequence of Coagulation Factor Xa, from uman plasma (P00742 235-488 limits assumed): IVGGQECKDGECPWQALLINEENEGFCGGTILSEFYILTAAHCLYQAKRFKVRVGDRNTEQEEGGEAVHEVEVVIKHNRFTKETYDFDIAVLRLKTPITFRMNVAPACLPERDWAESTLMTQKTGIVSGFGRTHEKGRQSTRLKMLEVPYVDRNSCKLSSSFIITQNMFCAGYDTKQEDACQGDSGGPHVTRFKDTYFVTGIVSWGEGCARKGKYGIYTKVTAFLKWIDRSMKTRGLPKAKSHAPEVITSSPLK
Sequence of Coagulation Factor Xa, from uman plasma (P00742 41-179 limits assumed): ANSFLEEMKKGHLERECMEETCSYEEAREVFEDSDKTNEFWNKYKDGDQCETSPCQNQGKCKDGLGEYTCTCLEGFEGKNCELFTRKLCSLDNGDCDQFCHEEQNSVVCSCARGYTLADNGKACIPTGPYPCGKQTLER

[5] = target: Chymotrypsin, from human pancreas (Homo sapiens, UniProt P17538); assay: Enzymatic assay, chymotrypsin; details: at 100 μM
Sequence of Chymotrypsin, from human pancreas (P17538 19-263): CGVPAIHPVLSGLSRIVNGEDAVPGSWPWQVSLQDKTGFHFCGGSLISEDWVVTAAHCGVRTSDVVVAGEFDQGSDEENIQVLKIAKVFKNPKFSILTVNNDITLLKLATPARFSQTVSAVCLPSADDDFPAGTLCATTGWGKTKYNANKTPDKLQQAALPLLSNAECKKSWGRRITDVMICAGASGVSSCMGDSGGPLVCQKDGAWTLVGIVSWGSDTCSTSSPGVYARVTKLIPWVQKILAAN

Chymase, from human skin = target: T2, Chymase, from human skin (Homo sapiens, UniProt P23946); assay: Enzymatic assay, chymase
T2 sequence (P23946 22-247): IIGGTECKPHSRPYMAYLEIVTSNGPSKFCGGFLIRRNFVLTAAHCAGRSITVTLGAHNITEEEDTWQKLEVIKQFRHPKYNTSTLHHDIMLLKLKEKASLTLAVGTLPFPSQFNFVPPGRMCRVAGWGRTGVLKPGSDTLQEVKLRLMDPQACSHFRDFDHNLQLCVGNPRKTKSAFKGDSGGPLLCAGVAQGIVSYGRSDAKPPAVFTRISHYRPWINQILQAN

[6] = target: Trypsin, from human pancreas (Homo sapiens, UniProt P07477); assay: Enzymatic assay, trypsin; details: at 100 μM
[7] = target: T3, CathepsinG, from human neutrophils (Homo sapiens, UniProt P08311); assay: Enzymatic assay, cathepsin G
T3 sequence (P08311 21-244): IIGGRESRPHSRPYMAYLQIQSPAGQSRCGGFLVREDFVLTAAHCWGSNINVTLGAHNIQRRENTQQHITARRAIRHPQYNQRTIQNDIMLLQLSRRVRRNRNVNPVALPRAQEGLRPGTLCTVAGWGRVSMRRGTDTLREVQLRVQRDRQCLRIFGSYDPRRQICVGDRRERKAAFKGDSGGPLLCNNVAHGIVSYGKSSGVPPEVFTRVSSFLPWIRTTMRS

[8] = test system: Tryptase, from human lung; assay: Enzymatic assay, tryptase; details: at 100 μM

Structure (SMILES)	IC50 [1] [nM]	Urokinase at 100 μM % [2] [%]	Thrombin at 100 μM % [3] [%]	FXa at 100 μM % [4] [%]	Chymotrypsin at 100 μM % [5] [%]	Chymase at 100 μM % (Chymase, from human skin) [%]	Trypsin at 100 μM % [6] [%]	IC50 ([7]; Cathepsin G IC50) [nM]	Tryptase At 100 μM % [8] [%]	Cathepsin G at 100 μM % [7] [at 100%]	IC50 ([7]; read-out: Cathepsin G IC50) [nM]	Tryptase at 100 μM % [8] [%]
CCCCCCCC[C@@H]1NC(=O)[C@H](CO)NC(=O)[C@H](C)NC(=O)[C@H]([C@@H](C)O)NC(=O)[C@@H]2CSSC[C@H](NC(=O)[C@H](CCC(N)=O)NC(=O)[C@@H]3CCCN3C(=O)[C@@H]3CCCN3C1=O)C(=O)N[C@@H](Cc1ccc(O)cc1)C(=O)N1CCC[C@@H]1C(=O)N[C@@H](CCC(N)=O)C(=O)N[C@@H](CCCC)C(=O)N2 [compound 169] (HELM PEPTIDE1{[Nle].C.T.A.S.[CCCCCCCC[C@H](N[*:1])C(=O)[*:2]].P.P.Q.C.Y.[dP].Q}$PEPTIDE1,PEPTIDE1,2:R3-10:R3|PEPTIDE1,PEPTIDE1,1:R1-13:R2$$$V2.0)	18	10.4	20.6	13.3	79.6	0	10.8	20300	4.2			
CC[C@H](C)[C@@H]1NC(=O)[C@H](CO)NC(=O)[C@H](C)NC(=O)[C@H]([C@@H](C)O)NC(=O)[C@@H]2CSSC[C@H](NC(=O)[C@H](CCC(N)=O)NC(=O)[C@@H]3CCCN3C(=O)[C@@H]3CCCN3C1=O)C(=O)N[C@@H](CCC(N)=O)C(=O)N1CCC[C@@H]1C(=O)N1CCC[C@H]1C(=O)N[C@@H](CCc1ccccc1)C(=O)N2 [Ex. 143] (HELM PEPTIDE1{[O=C([C@H](CCc1ccccc1)N[*:1])[*:2]].C.T.A.S.I.P.P.Q.C.Q.[dP].P}$PEPTIDE1,PEPTIDE1,2:R3-10:R3|PEPTIDE1,PEPTIDE1,1:R1-13:R2$$$V2.0)	15	8	12	0	91	0	12		18	28		
CCCC[C@@H]1NC(=O)[C@@H]2CCCN2C(=O)[C@H]2CCCN2C(=O)[C@H](Cc2ccccc2Cl)NC(=O)[C@@H]2CSSC[C@H](NC1=O)C(=O)N[C@@H]([C@@H](C)O)C(=O)N[C@@H](C)C(=O)N[C@@H](CO)C(=O)N[C@@H]([C@@H](C)CC)C(=O)N1CCC[C@H]1C(=O)N1CCC[C@H]1C(=O)N[C@@H](CCC(N)=O)C(=O)N2 [Ex. 144] (HELM PEPTIDE1{[Nle].C.T.A.S.I.P.P.Q.C.[O=C([C@H](Cc1ccccc1Cl)N[*:1])[*:2]].[dP].P}$PEPTIDE1,PEPTIDE1,2:R3-10:R3|PEPTIDE1,PEPTIDE1,1:R1-13:R2$$$V2.0)	7.5	6.2	3.6	0	80.6	0	7.5		0		21200	
CC[C@H](C)[C@@H]1NC(=O)[C@H](CO)NC(=O)[C@H](C)NC(=O)[C@H]([C@@H](C)O)NC(=O)[C@@H]2CSSC[C@H](NC(=O)[C@H](CCC(N)=O)NC(=O)[C@@H]3CCCN3C(=O)[C@@H]3CCCN3C1=O)C(=O)N[C@@H](Cc1ccc(O)cc1)C(=O)N[C@H](CCCCN)C(=O)N[C@@H](CCC(=O)O)C(=O)N[C@@H](CCc1ccccc1)C(=O)N2 [compound 174] (HELM PEPTIDE1{[O=C([C@H](CCc1ccccc1)N[*:1])[*:2]].C.T.A.S.I.P.P.Q.C.Y.[dK].E}$PEPTIDE1,PEPTIDE1,2:R3-10:R3|PEPTIDE1,PEPTIDE1,1:R1-13:R2$$$V2.0)	12	1	11	3	85	0	7		10	56		
CCCC[C@@H]1NC(=O)[C@@H]2CCCN2C(=O)[C@H]2CCCN2C(=O)[C@H](Cc2ccc(O)cc2)NC(=O)[C@@H]2CSSC[C@H](NC1=O)C(=O)N[C@@H]([C@@H](C)O)C(=O)N[C@@H](C)C(=O)N[C@@H](CO)C(=O)N[C@@H]([C@@H](C)CC)C(=O)N1CCC[C@H]1C(=O)N1CC(NC(=O)c3ccccc3)C[C@H]1C(=O)N[C@@H](CCC(N)=O)C(=O)N2 (single isomer, unassigned) [Ex. 138]	19	14.4	17.1	12.6	77.1	4.6	12.2	43900	0			
CC[C@H](C)[C@@H]1NC(=O)[C@@H]2CCCN2C(=O)[C@@H]2CCCN2C(=O)[C@H](CC(=O)O)NC(=O)[C@H](CO)NC(=O)[C@H](CCCCN)NC(=O)[C@H]([C@@H](C)O)NC(=O)[C@@H]2CSSC[C@H](NC1=O)C(=O)N[C@@H]([C@@H](C)O)C(=O)N1CCC[C@@H]1C(=O)N1CCC[C@H]1C(=O)N[C@@H](CCc1ccccc1)C(=O)N2 [Ex. 28] (HELM PEPTIDE1{[O=C([C@H](CCc1ccccc1)N[*:1])[*:2]].C.T.K.S.D.P.P.I.C.T.[dP].P}$PEPTIDE1,PEPTIDE1,2:R3-10:R3|PEPTIDE1,PEPTIDE1,1:R1-13:R2$$$V2.0)	> 100000	1	12	6	32	0	95	39				0
CCCCCCCC[C@@H]1NC(=O)[C@@H]2CCCN2C(=O)[C@H]2CCCN2C(=O)[C@H](Cc2ccc(O)cc2)NC(=O)[C@H](CCCCN)NC(=O)[C@H](CCC(N)=O)NC(=O)[C@@H]2CCCN2C(=O)[C@@H]2CCCN2C(=O)[C@H]([C@@H](C)CC)NC(=O)[C@H](CO)NC(=O)[C@H](C)NC(=O)[C@H]([C@@H](C)O)NC(=O)[C@H](CCC(=O)O)NC1=O [Ex. 156] (HELM PEPTIDE1{[CCCCCCCC[C@H](N[*:1])C(=O)[*:2]].E.T.A.S.I.P.P.Q.K.Y.[dP].P}$PEPTIDE1,PEPTIDE1,1:R1-13:R2$$$V2.0)	7.5	7	17	0	5	0	0		15	46		
C[C@@H]1NC(=O)[C@H]([C@@H](C)O)NC(=O)[C@@H]2CSSC[C@H](NC(=O)[C@H](CCC(N)=O)NC(=O)[C@@H]3CCCN3C(=O)[C@@H]3CCCN3C(=O)[C@H](CC3CCCCC3)NC(=O)[C@H](CO)NC1=O)C(=O)N[C@@H](Cc1ccccc1)C(=O)N1CCC[C@@H]1C(=O)N1CCC[C@H]1C(=O)N[C@@H](CCc1ccccc1)C(=O)N2 [Ex. 155] (HELM PEPTIDE1{[O=C([C@H](CCc1ccccc1)N[*:1])[*:2]].C.T.A.S.[Cha].P.P.Q.C.F.[dP].P}$PEPTIDE1,PEPTIDE1,2:R3-10:R3|PEPTIDE1,PEPTIDE1,1:R1-13:R2$$$V2.0)	8.2	12	19	9	83	3	18		30	52		

From patent US8658604B2, “Template-fixed beta-hairpin peptidomimetics with protease inhibitory activity” (Polyphor Ltd, priority 2005, dated 2014)
